Experimental data as given in ChEMBL document CHEMBL1139533, “Structure-activity relationship studies of a series of antiviral and antibacterial aglycon derivatives of the glycopeptide antibiotics vancomycin, eremomycin, and dechloroeremomycin” (J Med Chem, 2005).
≈ marks a conversion by molar mass, not a printed value.

Legend:
Enterococcus faecium [1] = assay: Minimum inhibitory concentration against glycopeptide resistant enterococci 569 Enterococcus faecium; format: functional
L1210 = assay: Cytostatic activity against L1210 cell line; format: functional, cell-based; conditions: Mus musculus
C3H/3T3 = assay: Minimal cytotoxic concentration to cause an alteration in C3H/3T3 cell line morphology; format: functional; conditions: Mus musculus
[2] = tested on: Moloney murine sarcoma virus; assay: Effective concentration against Moloney sarcoma virus; format: functional, organism-based, Viruses
[3] = tested on: Staphylococcus haemolyticus; assay: Minimum inhibitory concentration against 602 Staphylococcus haemolyticus; format: functional
[4] = tested on: Human immunodeficiency virus 2; assay: Effective concentration against human immunodeficiency virus type 2; format: functional, organism-based
Enterococcus faecalis [5] = assay: Minimum inhibitory concentration against glycopeptide resistant enterococci 560 Enterococcus faecalis; format: functional
CCRF-CEM = assay: Cytostatic activity to the compound against CEM cell line; format: functional, cell-based; conditions: Homo sapiens
MOLT-4 = assay: Cytostatic activity to the compound against Molt4/C8 cell line; format: functional, cell-based; conditions: Homo sapiens
[6] = tested on: Staphylococcus epidermidis; assay: Minimum inhibitory concentration against 533 Staphylococcus epidermidis; format: functional
Staphylococcus aureus [7] = assay: Minimum inhibitory concentration against glycopeptide intermediate-resistant 3798 Staphylococcus aureus; format: functional
Enterococcus faecalis [8] = assay: Minimum inhibitory concentration against 559 glycopeptide susceptible enterococci Enterococcus faecalis; format: functional
Staphylococcus aureus [9] = assay: Minimum inhibitory concentration against glycopeptide intermediate-resistant 3797 Staphylococcus aureus; format: functional
Enterococcus faecium [10] = assay: Minimum inhibitory concentration against glycopeptide susceptible enterococci 568 Enterococcus faecium; format: functional
[11] = tested on: Human immunodeficiency virus 1; assay: Effective concentration against human immunodeficiency virus type 1; format: functional, organism-based

SMILES | MIC (Enterococcus faecium [1]) [µg/mL] | IC50 (L1210) [µM] | MCC (C3H/3T3) [µg/mL] | EC50 [2] [µM] | MIC [3] [µg/mL] | EC50 [4] [µM] | MIC (Enterococcus faecalis [5]) [µg/mL] | IC50 (CCRF-CEM) [µM] | IC50 (MOLT-4) [µM] | MIC [6] [µg/mL] | MIC (Staphylococcus aureus [7]) [µg/mL] | MIC (Enterococcus faecalis [8]) [µg/mL] | MIC (Staphylococcus aureus [9]) [µg/mL] | MIC (Enterococcus faecium [10]) [µg/mL] | EC50 [11] [µM]
NCCCCCCCCCCNC(=O)[C@H]1NC(=O)[C@H]2NC(=O)[C@H](NC(=O)[C@@H]3NC(=O)[C@H](CC(N)=O)NC(=O)[C@H](N)[C@H](O)c4ccc(c(Cl)c4)Oc4cc3cc(c4O)Oc3ccc(cc3)[C@H]2O)c2ccc(O)c(c2)-c2c(O)cc(O)cc21 | > 64 | ≥ 250 | 20 | > 4 | > 32 | ≥ 25 | > 64 | 124 | ≥ 250 | > 32 | > 32 | > 64 | > 32 | > 64 | ≥ 25
CN[C@H](CC(C)C)C(=O)N[C@H]1C(=O)N[C@@H](CC(N)=O)C(=O)N[C@H]2C(=O)N[C@H]3C(=O)N[C@H](C(=O)N[C@H](C(=O)O)c4cc(O)cc(O)c4-c4cc3ccc4O)[C@H](O)c3ccc(cc3)Oc3cc2cc(c3O)Oc2ccc(cc2Cl)[C@H]1O | > 128 | > 500 | > 100 | > 100 | 16 (≈ 14.4 µM) | ≥ 250 | > 128 | > 500 | > 500 | 32 (≈ 28.8 µM) | > 64 | 16 (≈ 14.4 µM) | > 64 | 32 (≈ 28.8 µM) | 50
NC(=O)C[C@@H]1NC(=O)[C@H](N)[C@H](O)c2ccc(cc2)Oc2cc3cc(c2O)Oc2ccc(cc2)[C@@H](O)[C@@H]2NC(=O)[C@H](NC(=O)[C@@H]3NC1=O)c1ccc(O)c(c1)-c1c(O)cc(O)cc1[C@@H](C(=O)O)NC2=O | > 128 | – | – | – | > 128 | – | > 128 | – | – | > 128 | > 128 | > 128 | > 128 | > 128 | –
NC(=O)C[C@@H]1NC(=O)[C@H](N)[C@H](O)c2ccc(cc2)Oc2cc3cc(c2O)Oc2ccc(cc2)[C@@H](O)[C@@H]2NC(=O)[C@H](NC(=O)[C@@H]3NC1=O)c1ccc(O)c(c1)-c1c(O)cc(O)cc1[C@@H](C(=O)NCC13CC4CC(CC(C4)C1)C3)NC2=O | > 64 | > 250 | 100 | 2.6 | > 32 | 25.7 | > 64 | ≥ 250 | ≥ 250 | > 32 | > 32 | > 64 | > 32 | > 64 | 30
NC(=O)C[C@@H]1NC(=O)[C@H](N)[C@H](O)c2ccc(c(Cl)c2)Oc2cc3cc(c2O)Oc2ccc(cc2)[C@@H](O)[C@@H]2NC(=O)[C@H](NC(=O)[C@@H]3NC1=O)c1ccc(O)c(c1)-c1c(O)cc(O)cc1[C@@H](C(=O)NCC13CC4CC(CC(C4)C1)C3)NC2=O | > 64 | 175 | – | – | > 32 | 3.5 | > 64 | > 250 | > 250 | > 32 | > 32 | > 64 | > 32 | > 64 | 5.5
CN[C@H](CC(C)C)C(=O)N[C@H]1C(=O)N[C@@H](CC(N)=O)C(=O)N[C@H]2C(=O)N[C@H]3C(=O)N[C@H](C(=O)N[C@H](C(=O)NCCCCCCCCCCN)c4cc(O)cc(O)c4-c4cc3ccc4O)[C@H](O)c3ccc(c(Cl)c3)Oc3cc2cc(c3O)Oc2ccc(cc2Cl)[C@H]1O [listing 1 of 2 here] | – | > 250 | – | 5 | – | 18.3 | – | ≥ 250 | 228 | – | – | – | – | – | 2.5
CN[C@H](CC(C)C)C(=O)N[C@H]1C(=O)N[C@@H](CC(N)=O)C(=O)N[C@H]2C(=O)N[C@H]3C(=O)N[C@H](C(=O)N[C@H](C(=O)NCCCCCCCCCCN)c4cc(O)cc(O)c4-c4cc3ccc4O)[C@H](O)c3ccc(c(Cl)c3)Oc3cc2cc(c3O)Oc2ccc(cc2Cl)[C@H]1O [listing 2 of 2 here] | 16 (≈ 12.3 µM) | – | ≥ 20 | – | 1 (≈ 0.77 µM) | – | 16 (≈ 12.3 µM) | – | – | 2 (≈ 1.54 µM) | 2 (≈ 1.54 µM) | 0.5 (≈ 0.385 µM) | 2 (≈ 1.54 µM) | 2 (≈ 1.54 µM) | –
CN[C@H](CC(C)C)C(=O)N[C@H]1C(=O)N[C@@H](CC(N)=O)C(=O)N[C@H]2C(=O)N[C@H]3C(=O)N[C@H](C(=O)N[C@H](C(=O)NC4C5CC6CC(C5)CC4C6)c4cc(O)cc(O)c4-c4cc3ccc4O)[C@H](O)c3ccc(c(Cl)c3)Oc3cc2cc(c3O)Oc2ccc(cc2Cl)[C@H]1O (stereo partly specified) [listing 1 of 2 here] | – | ≥ 250 | – | 13 | – | 8.5 | – | > 250 | ≥ 250 | – | – | – | – | – | 3
CN[C@H](CC(C)C)C(=O)N[C@H]1C(=O)N[C@@H](CC(N)=O)C(=O)N[C@H]2C(=O)N[C@H]3C(=O)N[C@H](C(=O)N[C@H](C(=O)NC4C5CC6CC(C5)CC4C6)c4cc(O)cc(O)c4-c4cc3ccc4O)[C@H](O)c3ccc(c(Cl)c3)Oc3cc2cc(c3O)Oc2ccc(cc2Cl)[C@H]1O (stereo partly specified) [listing 2 of 2 here] | 32 (≈ 25.1 µM) | – | 100 | – | 4 (≈ 3.13 µM) | – | 32 (≈ 25.1 µM) | – | – | 4 (≈ 3.13 µM) | 4 (≈ 3.13 µM) | 2 (≈ 1.57 µM) | 4 (≈ 3.13 µM) | 2 (≈ 1.57 µM) | –
CN[C@H](CC(C)C)C(=O)N[C@H]1C(=O)N[C@@H](CC(N)=O)C(=O)N[C@H]2C(=O)N[C@H]3C(=O)N[C@H](C(=O)N[C@H](C(=O)O)c4cc(O)cc(O)c4-c4cc3ccc4O)[C@H](O)c3ccc(c(Cl)c3)Oc3cc2cc(c3O)Oc2ccc(cc2Cl)[C@H]1O [listing 1 of 2 here] | – | > 500 | – | 100 | – | ≥ 250 | – | > 500 | > 500 | – | – | – | – | – | 65
CN[C@H](CC(C)C)C(=O)N[C@H]1C(=O)N[C@@H](CC(N)=O)C(=O)N[C@H]2C(=O)N[C@H]3C(=O)N[C@H](C(=O)N[C@H](C(=O)O)c4cc(O)cc(O)c4-c4cc3ccc4O)[C@H](O)c3ccc(c(Cl)c3)Oc3cc2cc(c3O)Oc2ccc(cc2Cl)[C@H]1O [listing 2 of 2 here] | > 64 | – | > 100 | – | 8 (≈ 6.99 µM) | – | > 64 | – | – | 4 (≈ 3.5 µM) | 4 (≈ 3.5 µM) | 2 (≈ 1.75 µM) | 4 (≈ 3.5 µM) | 4 (≈ 3.5 µM) | –
NCCCCCCCCCCNC(=O)[C@H]1NC(=O)[C@H]2NC(=O)[C@H](NC(=O)[C@@H]3NC(=O)[C@H](CC(N)=O)NC(=O)[C@H](N)[C@H](O)c4ccc(cc4)Oc4cc3cc(c4O)Oc3ccc(cc3)[C@H]2O)c2ccc(O)c(c2)-c2c(O)cc(O)cc21 | > 64 | ≥ 250 | ≥ 20 | 7.8 | > 32 | > 25 | > 64 | 106 | 144 | > 32 | > 32 | > 64 | > 32 | > 64 | > 25
CN[C@H](CC(C)C)C(=O)N[C@H]1C(=O)N[C@@H](CC(N)=O)C(=O)N[C@H]2C(=O)N[C@H]3C(=O)N[C@H](C(=O)N[C@H](C(=O)NCC45CC6CC(CC(C6)C4)C5)c4cc(O)cc(O)c4-c4cc3ccc4O)[C@H](O)c3ccc(c(Cl)c3)Oc3cc2cc(c3O)Oc2ccc(cc2Cl)[C@H]1O [listing 1 of 2 here] | – | ≥ 250 | – | 10 | – | 9.5 | – | ≥ 250 | 72 | – | – | – | – | – | 3
CN[C@H](CC(C)C)C(=O)N[C@H]1C(=O)N[C@@H](CC(N)=O)C(=O)N[C@H]2C(=O)N[C@H]3C(=O)N[C@H](C(=O)N[C@H](C(=O)NCC45CC6CC(CC(C6)C4)C5)c4cc(O)cc(O)c4-c4cc3ccc4O)[C@H](O)c3ccc(c(Cl)c3)Oc3cc2cc(c3O)Oc2ccc(cc2Cl)[C@H]1O [listing 2 of 2 here] | 16 (≈ 12.4 µM) | – | ≥ 100 | – | 2 (≈ 1.55 µM) | – | 16 (≈ 12.4 µM) | – | – | 2 (≈ 1.55 µM) | 2 (≈ 1.55 µM) | 1 (≈ 0.774 µM) | 2 (≈ 1.55 µM) | 2 (≈ 1.55 µM) | –
